The text below walks through data of patent publication US8735375B2, “Therapeutic compositions” (Leo Laboratories Limited, priority 2005, dated 2014).

A short description of the data set: Stability of I3A in DMSO. The class given is physicochemical. As to conditions: 10 days. On the procedure:
I3A was investigated for stability in DMSO at room temperature and at 37° C. over a 10 day time period. A control sample of I3A in acetonitrile was kept under the same conditions as the test sample. The samples were analysed by HPLC at the start of the experiment (Day 0), after 48 hours (Day 2) and again after 10 days.
The chromatographic conditions employed were as follows: […]

Consider `C/C=C(/C)C(=O)O[C@H]1C(C)=C[C@]23C(=O)[C@H](C=C(CO)[C@@H](O)[C@]12O)[C@H]1[C@@H](C[C@H]3C)C1(C)C` [Formulation I3A, ingenol-3-angelate], for which the stability entry by setting is: (37° C.) “stable”; (room temperature) “stable”.
